Reference: the NIST ThermoML archive (doi:10.1016/j.jct.2005.05.003)

Experiment: mn = molality of the nth substance listed, in mol/kg
Settings: Liquid, Vibrating tube method

[Ca+2].[Cl-].[Cl-] [calcium chloride] + CO
Settings | mass density [kg/m3]
348.24 K, 14994 kPa, m1 = 0.1082 | 766.79
348.24 K, 14997 kPa, m1 = 0.6588 | 815.48
348.24 K, 15007 kPa, m1 = 0.2853 | 782.23
348.24 K, 19987 kPa, m1 = 0.6588 | 820.39
348.24 K, 19991 kPa, m1 = 0.2853 | 787.34
348.24 K, 20008 kPa, m1 = 0.1082 | 772.12
348.24 K, 24982 kPa, m1 = 0.1082 | 777.11
348.24 K, 24994 kPa, m1 = 0.6588 | 825.04
348.24 K, 24997 kPa, m1 = 0.2853 | 792.2
348.24 K, 29990 kPa, m1 = 0.1082 | 781.87
348.24 K, 29991 kPa, m1 = 0.2853 | 796.8
348.24 K, 29992 kPa, m1 = 0.6588 | 829.46
348.24 K, 34986 kPa, m1 = 0.2853 | 801.19
348.24 K, 34998 kPa, m1 = 0.6588 | 833.71
348.24 K, 35025 kPa, m1 = 0.1082 | 786.39
348.24 K, 39992 kPa, m1 = 0.1082 | 790.73
348.24 K, 40048 kPa, m1 = 0.6588 | 837.76
348.24 K, 40055 kPa, m1 = 0.2853 | 805.38
373.24 K, 517 kPa, m1 = 2.393 | 904.38
373.24 K, 4985 kPa, m1 = 2.393 | 909.14
373.24 K, 10000 kPa, m1 = 2.393 | 914.19
373.24 K, 14988 kPa, m1 = 2.393 | 918.95
373.24 K, 20003 kPa, m1 = 2.393 | 923.48
373.24 K, 25015 kPa, m1 = 2.393 | 927.81
373.24 K, 29988 kPa, m1 = 2.393 | 931.93
373.24 K, 35016 kPa, m1 = 2.393 | 935.94
373.24 K, 40000 kPa, m1 = 2.393 | 939.74
373.26 K, 523 kPa, m1 = 0.2853 | 738.51
373.26 K, 527 kPa, m1 = 0.1082 | 722.32
373.26 K, 534 kPa, m1 = 0.6588 | 773.01
373.26 K, 4997 kPa, m1 = 0.2853 | 745.17
373.26 K, 4999 kPa, m1 = 0.1082 | 729.31
373.26 K, 5013 kPa, m1 = 0.6588 | 779.26
373.26 K, 9996 kPa, m1 = 0.2853 | 752.01
373.26 K, 10000 kPa, m1 = 0.6588 | 785.66
373.26 K, 10001 kPa, m1 = 0.1082 | 736.45
373.26 K, 14984 kPa, m1 = 0.2853 | 758.3
373.26 K, 14986 kPa, m1 = 0.6588 | 791.62
373.26 K, 15009 kPa, m1 = 0.1082 | 743.03
373.26 K, 19980 kPa, m1 = 0.2853 | 764.17
373.26 K, 19981 kPa, m1 = 0.1082 | 749.09
373.26 K, 20010 kPa, m1 = 0.6588 | 797.23
373.26 K, 24999 kPa, m1 = 0.2853 | 769.7
373.26 K, 25000 kPa, m1 = 0.6588 | 802.48
373.26 K, 25016 kPa, m1 = 0.1082 | 754.83
373.26 K, 29995 kPa, m1 = 0.1082 | 760.17
373.26 K, 29996 kPa, m1 = 0.6588 | 807.45
373.26 K, 30000 kPa, m1 = 0.2853 | 774.89
373.26 K, 34993 kPa, m1 = 0.2853 | 779.79
373.26 K, 35000 kPa, m1 = 0.6588 | 812.19
373.26 K, 35003 kPa, m1 = 0.1082 | 765.25
373.26 K, 40001 kPa, m1 = 0.6588 | 816.69
373.26 K, 40004 kPa, m1 = 0.2853 | 784.46
373.26 K, 40011 kPa, m1 = 0.1082 | 770.07
398.25 K, 888 kPa, m1 = 2.393 | 878.49
398.25 K, 5007 kPa, m1 = 2.393 | 883.68
398.25 K, 10016 kPa, m1 = 2.393 | 889.54
398.25 K, 14986 kPa, m1 = 2.393 | 895.06
398.25 K, 19983 kPa, m1 = 2.393 | 900.25
398.25 K, 24997 kPa, m1 = 2.393 | 905.15
398.25 K, 29989 kPa, m1 = 2.393 | 909.82
398.25 K, 34996 kPa, m1 = 2.393 | 914.29
398.25 K, 40014 kPa, m1 = 2.393 | 918.56
398.27 K, 880 kPa, m1 = 0.6588 | 744.38
398.27 K, 899 kPa, m1 = 0.2853 | 709.27
398.27 K, 901 kPa, m1 = 0.1082 | 692.84
398.27 K, 4987 kPa, m1 = 0.6588 | 751.36
398.27 K, 4995 kPa, m1 = 0.2853 | 716.79
398.27 K, 4999 kPa, m1 = 0.1082 | 700.78
398.27 K, 9984 kPa, m1 = 0.2853 | 725.04
398.27 K, 9997 kPa, m1 = 0.6588 | 759.11
398.27 K, 10005 kPa, m1 = 0.1082 | 709.46
398.27 K, 14988 kPa, m1 = 0.2853 | 732.54
398.27 K, 15011 kPa, m1 = 0.1082 | 717.28
398.27 K, 15012 kPa, m1 = 0.6588 | 766.18
398.27 K, 19999 kPa, m1 = 0.2853 | 739.43
398.27 K, 20003 kPa, m1 = 0.1082 | 724.41
398.27 K, 20013 kPa, m1 = 0.6588 | 772.68
398.27 K, 24989 kPa, m1 = 0.2853 | 745.78
398.27 K, 25000 kPa, m1 = 0.6588 | 778.71
398.27 K, 25003 kPa, m1 = 0.1082 | 730.99
398.27 K, 29985 kPa, m1 = 0.6588 | 784.37
398.27 K, 30002 kPa, m1 = 0.2853 | 751.73
398.27 K, 30013 kPa, m1 = 0.1082 | 737.16
398.27 K, 34982 kPa, m1 = 0.1082 | 742.86
398.27 K, 34983 kPa, m1 = 0.2853 | 757.27
398.27 K, 35012 kPa, m1 = 0.6588 | 789.76
398.27 K, 39992 kPa, m1 = 0.2853 | 762.54
398.27 K, 39995 kPa, m1 = 0.1082 | 748.29
398.27 K, 39999 kPa, m1 = 0.6588 | 794.79
